Melting point, EC50 and Ki data for twelve molecules are collected here from patent publication US8802704B2, “Oxadiazole derivatives” (Merck Serono SA, priority 2009, dated 2014).

Structures can show the parent of a compound that is named as a salt. Where two headings read alike, the source gives them in different places.

Data set [1] has as its target T1, S1P1 (Homo sapiens, UniProt P21453). As to the kind of experiment: 35S-GTPγS binding on membranes from CHO cells expressing S1P1. Type of data set: biochemical. Particulars: read-out: S1P1/GTPG EC50. The procedure:
(§1) Membranes were prepared from CHO cells expressing S1P1 or S1P3 for use in ligand and […] binding studies. Cells were suspended in 50 mM TRIS, pH 7.4, 2 mM EDTA, 250 mM Sucrose (buffer A) and 1× Complete protease inhibitor cocktail (Roche), and disrupted at 4° C. by N2 decompression using a cell disruption bomb (Parr Instrument). Following centrifugation at 1000 RPM for 10 min at 4° C., the supernatant was diluted (2×) in buffer A and centrifuged again at 19000 RPM for 75 min at 4° C. The pellet was then suspended in 10 mM HEPES, pH 7.4, 1 mM EDTA, 250 mM Sucrose (Buffer B), and 1× Complete EDTA-free protease inhibitor cocktail and homogenized using a potter. Membranes were flash frozen in liquid N2 and stored at −80° C.
Membranes (1 to 10 μg protein) prepared as described above, were incubated in 96-well Scintiplates (PerkinElmer) with test compounds diluted in DMSO, in 140 μl of 20 mM HEPES, pH 7.4, 10 mM MgCl2, 2 μg/well Saponin, 0.2% fatty acid free BSA (Assay buffer), 125 mM NaCl and 1.5 μM GDP. […] Supernatant was discarded and membrane bound radioactivity was measured on a PerkinElmer 1450 MicroBeta counter. Triplicate samples were averaged and expressed as % response relative to S1P activation in absence of compound (n=2).
The “potency” or the “activity” of the compounds is determined by the EC50 values as evaluated in the above described 35S-GTPγS binding assay.
Target sequence in this assay (P21453 whole entry, species assumed): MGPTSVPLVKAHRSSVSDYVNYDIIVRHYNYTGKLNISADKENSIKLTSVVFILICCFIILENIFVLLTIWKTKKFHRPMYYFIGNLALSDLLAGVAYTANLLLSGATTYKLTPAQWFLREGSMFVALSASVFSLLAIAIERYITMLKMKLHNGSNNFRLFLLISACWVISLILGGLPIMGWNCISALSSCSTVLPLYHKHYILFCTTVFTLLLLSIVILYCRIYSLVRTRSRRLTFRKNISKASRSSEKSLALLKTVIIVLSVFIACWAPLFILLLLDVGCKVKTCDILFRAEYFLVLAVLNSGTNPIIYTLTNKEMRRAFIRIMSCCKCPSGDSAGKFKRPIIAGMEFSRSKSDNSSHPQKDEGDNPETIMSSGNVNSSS

Data set [2] concerns the target T1, S1P1. As to the kind of experiment: S1P1 internalization assay in S1P1-U2OS cells (cell imaging). Particulars: U2OS cells expressing S1P1-EGFP, 1 hour. Type of data set: cell-based. As for the experimental part: Cellular functional assays: Internalization of Sphingosine-1-phosphate receptor 1 (S1P1) in a human Cell line (U2OS) in a 384-well format using a Cell Imaging analysis.
The S1P1 internalization assay was performed in 384 well plates (Corning® 384 black with clear bottom 3712) using S1P1-U2OS cells from Biolmage (C039A), a human epithelial cell line (Human Bone Osteosarcoma Epithelial Cells). These cells expressed the human S1P1 Receptor fused to the green fluorescent protein (EGFP). A standard CMV promoter (cytomegalovirus promoter) controls the expression of S1P1-EGFP and continuous expression was maintained by addition of geneticin to the culture medium.
S1P1Receptor desensitization induced the internalization of the membrane-localized S1P1-EGFP fusion protein to endosomes, which can be monitored by cell imaging analysis. The cells are plated in low serum medium (Dulbecco's Modified Eagle Medium (DMEM) with Glutamax-1 and high glucose, 1% Penicillin/Streptomycin, 1% Fetal Calf Serum (FCS), 0.5 mg/ml Geneticin) overnight.
The next day, S1P1-U2OS cells are incubated in 20 μl serum free medium (DMEM with Glutamax-1 and high glucose, 0.1% of fatty-acid free Bovin Serum Albumin (BSA), 10 mM, N′-2-Hydroxyethylpiperazine-N′-2 ethanesulphonic acid (HEPES) 1M) for 2 hours at 37° C./5% CO2. The cells are then treated with 4 μl compounds/agonists (6×/3% DMSO) for a total volume of 24 μl, and plates are incubated for 1 hour at 37° C./5% CO2.
S1P1-U2OS cells are fixed with 25 μl Paraformaldehyde 8% and stained with Hoechst 33345 dye (1:1000) for 20 minutes.
They were then washed 3 times with Phosphate Buffered Saline (PBS) and plates are sealed. The internalization of the receptor S1P1-EGFP is measured on Cellomics by calculating the “spot count per object” (“object” corresponds to nuclear and “spot” corresponds to S1P1-EGFP receptor). Internalization data were observed thanks to vHCS View and analyzed using Genedata® software.
Target sequence in this assay (P21453 whole entry): as the sequence (P21453 whole entry, species assumed) above

The target of data set [3] is T1, S1P1. The data set is described as follows: Receptor binding assay, [33P]sphingosine 1-phosphate competition (SPA), S1P1. As for the experimental part: Cells were suspended in 50 mM TRIS, pH 7.4, 2 mM EDTA, 250 mM Sucrose (buffer A) and 1× Complete protease inhibitor cocktail (Roche), and disrupted at 4° C. by N2 decompression using a cell disruption bomb (Parr Instrument). […] The pellet was then suspended in 10 mM HEPES, pH 7.4, 1 mM EDTA, 250 mM Sucrose (Buffer B), and 1× Complete EDTA-free protease inhibitor cocktail and homogenized using a potter. Membranes were flash frozen in liquid N2 and stored at −80° C.
[33P]sphingosine 1-phosphate (3000 Ci/mmol; American Radiolabeled Chemicals, Inc.) was added to test compounds in 20% DMSO by competition. […] Triplicate samples were averaged and normalized as percentage of inhibition relative to total binding (only DMSO in well) and non-specific binding (1000-fold excess of unlabeled S1P). Binding data were analyzed using the GraphPad Prism program or Genedata software.
Target sequence in this assay (P21453 whole entry, species assumed): as above

Data set [4] addresses S1P3 (Homo sapiens, UniProt Q99500). As to the kind of experiment: Receptor binding assay, [33P]sphingosine 1-phosphate competition (SPA), S1P3. The procedure:
as §1
[33P]sphingosine 1-phosphate (3000 Ci/mmol; American Radiolabeled Chemicals, Inc.) was added to test compounds in 20% DMSO by competition. Membranes and WGA SPA beads (GE Healthcare) were added to give a final volume of 100 μl in 96-well plates or 50 μl in 384-well plates with assay concentrations of 30 pM or 15 pM [33P]sphingosine 1-phosphate (respectively for S1P1 or S1P3), 50 mM HEPES, pH 7.5, 5 mM MgCl2, 100 mM NaCl, 0.4% fatty acid-free BSA, 1-5 μg/well of proteins in 96-well plates vs 0.6-1 μg/well of proteins in 384-well plates and 100 μg/well of WGA SPA beads in 96-well plates vs 75 μg/well of WGA SPA beads in 384-well plates. Binding was performed for 60 min at RT on a shaker and bound radioactivity was measured on a PerkinElmer 1450 MicroBeta counter. Triplicate samples were averaged and normalized as percentage of inhibition relative to total binding (only DMSO in well) and non-specific binding (1000-fold excess of unlabeled S1P). Binding data were analyzed using the GraphPad Prism program or Genedata software.

[5] abbreviates: 384 well-plate, read-out: S1P1 binding Ki (M) (384 well-plate).
The mark [6] stands for this setting: 384 well-plate, read-out: S1P3 binding Ki (M) (384 well-plate).

Sequence of S1P3 (Q99500 whole entry, species assumed): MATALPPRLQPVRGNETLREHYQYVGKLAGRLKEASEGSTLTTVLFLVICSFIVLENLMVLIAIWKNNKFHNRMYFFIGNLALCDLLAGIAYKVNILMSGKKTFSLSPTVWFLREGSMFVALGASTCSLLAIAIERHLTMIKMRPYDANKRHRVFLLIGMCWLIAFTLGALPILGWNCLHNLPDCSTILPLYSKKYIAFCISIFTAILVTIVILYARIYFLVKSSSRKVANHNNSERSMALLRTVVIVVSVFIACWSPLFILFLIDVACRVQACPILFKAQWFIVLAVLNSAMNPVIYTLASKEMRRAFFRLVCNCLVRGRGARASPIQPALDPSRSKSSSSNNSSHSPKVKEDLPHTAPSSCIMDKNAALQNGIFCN

By melting point is commonly meant the temperature, or range, at which the solid turns liquid. `COCc1cc(-c2nc(-c3cccc(CN(C)CC(=O)O)c3)no2)ccc1-c1ccccc1C(F)(F)F` (as salt: hydrochloride) [Example 49, N-(3-{5-[2-(methoxymethyl)-2′-(trifluoromethyl)biphenyl-4-yl]-1,2,4-oxadiazol-3-yl}benzyl)-N-methylglycine] gave a melting point of 207 °C.
Molecule `Cc1ccccc1-c1ccc(-c2nc(-c3ccc(CN(C)CC(=O)O)c(F)c3)no2)cc1C(F)(F)F` (as salt: hydrochloride) [Example 70, N-(2-fluoro-4-{5-[2′-methyl-2-(trifluoromethyl)biphenyl-4-yl]-1,2,4-oxadiazol-3-yl}benzyl)-N-methylglycine] showed a melting point of 183 °C.
`Cc1cc(-c2nc(-c3cc(F)cc(CN(C)CC(=O)O)c3)no2)ccc1-c1ccccc1C(F)(F)F` (as salt: hydrochloride) [Example 104, N-(3-fluoro-5-{5-[2-methyl-2′-(trifluoromethyl)biphenyl-4-yl]-1,2,4-oxadiazol-3-yl}benzyl)-N-methylglycine] had a melting point of 207 °C.
The same measure, in the same setting: the result for `CCOc1cc(-c2nc(-c3ccc(CN(C)CC(=O)O)cc3)no2)ccc1-c1ccccc1C(F)(F)F` (as salt: hydrochloride) [Example 115, N-(4-{5-[2-ethoxy-2′-(trifluoromethyl)biphenyl-4-yl]-1,2,4-oxadiazol-3-yl}benzyl)-N-methylglycine] reads 210 °C; that for `CN(CC(=O)O)Cc1cc(F)cc(-c2noc(-c3ccc(-c4ccccc4C(F)(F)F)c(Cl)c3)n2)c1` (as salt: hydrochloride) [Example 136, N-(3-{5-[2-chloro-2′-(trifluoromethyl)biphenyl-4-yl]-1,2,4-oxadiazol-3-yl}-5-fluorobenzyl)-N-methylglycine], 212 °C.
As usually defined, the Ki is the dissociation constant of the complex between target and ligand, obtained from inhibition or displacement. On to `Cc1ccccc1-c1ccc(-c2nc(-c3cccc(CN(C)CC(=O)O)c3)no2)cc1C(F)(F)F` [Example 14, N-methyl-N-(3-{5-[2′-methyl-2-(trifluoromethyl)biphenyl-4-yl]-1,2,4-oxadiazol-3-yl}benzyl)glycine], for which the EC50 in data set [1] was found to be 1.24 nM; in data set [2], 8.75 nM. Also, the Ki in data set [3] (96 well-plate, read-out: S1P1 binding Ki (M) (96 well-plate)) amounted to 4.47e-10 M; in data set [3] (setting [5]), 1.93e-09 M; in data set [4] (96 well-plate, read-out: S1P3 binding Ki (M) (96 well-plate)) it was 2.36e-07 M; in data set [4] (setting [6]) it was 1.68e-07 M.
`Cc1ccccc1-c1ccc(-c2nc(-c3cc(F)c(CN(C)CC(=O)O)c(F)c3)no2)cc1C(F)(F)F` [Example 148, 2-((2,6-difluoro-4-(5-(2′-methyl-2-(trifluoromethyl)biphenyl-4-yl)-1,2,4-oxadiazol-3-yl)benzyl)(methyl)amino)acetic acid] yielded an EC50 in data set [2] of 24.7 nM. In addition, the Ki was found to be 2.38e-09 M in data set [3] (setting [5]) and 8.34e-07 M in data set [4] (setting [6]).
In turn, `Cc1ccccc1-c1ccc(-c2nc(-c3ccc(CN(C)CC(=O)O)c(F)c3F)no2)cc1C(F)(F)F` [Example 150, 2-((2,3-difluoro-4-(5-(2-(trifluoromethyl)-2′-methylbiphenyl-4-yl)-1,2,4-oxadiazol-3-yl)benzyl)(methyl)amino)acetic acid] showed an EC50 in data set [2] of 18 nM. Further, the Ki in data set [3] (setting [5]) is 2.07e-09 M; in data set [4] (setting [6]), 2.97e-07 M.
On the same counts, the results for `Cc1cc(-c2nc(-c3ccc(CN(C)CC(=O)O)c(F)c3F)no2)ccc1-c1ccccc1C(F)(F)F` [Example 152, 2-((2,3-difluoro-4-(5-(2-methyl-2′-(trifluoromethyl)biphenyl-4-yl)-1,2,4-oxadiazol-3-yl)benzyl)(methyl)amino)acetic acid] are 68.4 nM, 3.71e-09 M and 1.25e-05 M.
On the same counts, the results for `Cc1cc(-c2nc(-c3ccc(CN(C)CC(=O)O)cc3Cl)no2)ccc1-c1ccccc1C(F)(F)F` [Example 153, 2-((3-chloro-4-(5-(2-methyl-2′-(trifluoromethyl)biphenyl-4-yl)-1,2,4-oxadiazol-3-yl)benzyl)(methyl)amino)acetic acid] are 50.9 nM, 3.32e-09 M and 7.5e-06 M.
In the case of `Cc1cc(-c2noc(-c3ccc(-c4ccccc4C)c(C(F)(F)F)c3)n2)ccc1CN(C)CC(=O)O` [Example 154, 2-(methyl(2-methyl-4-(5-(2′-methyl-2-(trifluoromethyl)biphenyl-4-yl)-1,2,4-oxadiazol-3-yl)benzyl)amino)acetic acid], the EC50 in data set [2] stood at 17.3 nM. The figures for the Ki in data set [3] (setting [5]) and in data set [4] (setting [6]) were 3.16e-09 M and 1.07e-06 M, respectively.
Consider `CCc1cc(-c2noc(-c3ccc(-c4ccccc4C)c(C(F)(F)F)c3)n2)ccc1CN(C)CC(=O)O` [Example 155, 2-((2-ethyl-4-(5-(2′-methyl-2-(trifluoromethyl)biphenyl-4-yl)-1,2,4-oxadiazol-3-yl)benzyl)(methy)amino)acetic acid], for which the EC50 in data set [2] was 17.3 nM. In addition, the Ki in data set [3] (setting [5]) is 3.72e-09 M; in data set [4] (setting [6]), 8.1e-06 M.
